For one experiment, the system named is DLD-1 BRCA2−/− cells. Kind of experiment: Homologous recombination synthetic lethal inhibition of proliferation, DLD-1 BRCA2-/- (Cell Titre Glo 3D). It counts as cell-based. The conditions noted are these: Homo sapiens. In a few lines: (§1)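 Read-out: CellTiter-Glo 3D luminescence, day 7 for wt DLD-1, day 12 for BRCA2−/−, about 8-9 population doublings each. Seeding 1,500 or 3,000 cells/mL respectively. Dose range 10 μM–0.51 nM, 3-fold, 10 points, with re-dosing on day 6. IC50 from curve fit.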

Another experiment has as its system DLD-1 cells. In words: Inhibition of proliferation, DLD-1 BRCA2 wt control (Cell Titre Glo 3D). It is filed as cell-based. The conditions noted are these: Homo sapiens. The method in brief: as §1
[1] abbreviates: DLD-1, first proliferation column (c5), DLD-1 BRCA2-/-, read-out: POLQ PD Prolif Lumin (converted).
[2] abbreviates: DLD-1, second proliferation column (c6), DLD-1 BRCA2 wt control, read-out: POLQ PD Prolif Lumin (converted).
[3] abbreviates: DLD-1, first proliferation column (c5), taken as DLD-1 BRCA2-/-, read-out: POLQ PD Prolif Lumin (converted).
[4] abbreviates: DLD-1, second proliferation column (c6), taken as DLD-1 BRCA2 wt, read-out: POLQ PD Prolif Lumin (converted).
Setting [5] is: DLD-1, 288 h, DLD-1 BRCA2−/− cells, 12 days, read-out: POLQ PD Prolif Lumin BRCA2 −/− mean pIC50 (converted).
Setting [6] is: DLD-1, 168 h, DLD-1 BRCA2 wt cells, 7 days, read-out: POLQ PD Prolif Lumin DLD1 mean pIC50 (converted).
[7] abbreviates: DLD-1, proliferation, luminescence, taken as DLD-1 BRCA2-/-, read-out: POLQ PD Prolif Lumin (converted).
Setting [8] is: DLD-1, proliferation, luminescence, second Prolif column (c6), taken as DLD-1 BRCA2 wt control, read-out: POLQ PD Prolif Lumin (converted).

Read-outs that look alike come from different tables or passages of the source.

For the molecule `CNCCOc1ccc(-c2nc3c(OC4(C)CC4)ncnc3n2Cc2cc(C)ccn2)c(Cl)c1` [Example T137, 2-(3-chloro-4-(6-(1-methylcyclopropoxy)-9-((4-methylpyridin-2-yl)methyl)-9H-purin-8-yl)phenoxy)-N-methylethan-1-amine], the IC50 was 0.2 µM in the experiment on DLD-1 BRCA2−/− cells (setting [1]) and greater than 10 µM with DLD-1 cells (setting [2]).

Take `Cc1ccnc(Cn2c(-c3ccc(OCC4(O)CC4)cc3Cl)nc3c(OC4(C)CC4)ncnc32)c1` [Example T197, 1-((3-chloro-4-(6-(1-methylcyclopropoxy)-9-((4-methylpyridin-2-yl)methyl)-9H-purin-8-yl)phenoxy)methyl)cyclopropan-1-ol]: the IC50 is 0.251 µM in the experiment with DLD-1 BRCA2−/− cells (setting [1]) and greater than 10 µM in the experiment on DLD-1 cells (setting [2]).

On to `Cc1ccnc(Cn2c(-c3ccc(CCC(N)=O)cc3Cl)nc3c(OC4(C)CC4)ncnc32)c1` [Example T116, 3-(3-chloro-4-(6-(1-methylcyclopropoxy)-9-((4-methylpyridin-2-yl)methyl)-9H-purin-8-yl)phenyl)propanamide], for which the IC50 in the experiment with DLD-1 BRCA2−/− cells (setting [1]) was 0.631 µM; in the experiment with DLD-1 cells (setting [2]), greater than 10 µM.

For `CC1(Oc2ncnc3c2nc(-c2ccc(OCCN4CCNCC4)cc2Cl)n3Cc2nccc(Cl)c2F)CC1` [Example T345, 9-((4-chloro-3-fluoropyridin-2-yl)methyl)-8-(2-chloro-4-(2-(piperazin-1-yl)ethoxy)phenyl)-6-(1-methylcyclopropoxy)-9H-purine], the IC50 in the experiment on DLD-1 BRCA2−/− cells (setting [3]) was 0.794 µM; in the experiment with DLD-1 cells (setting [4]), 10 µM.

Regarding `CC(CCOc1ccc(-c2nc3c(OC4(C)CC4)ncnc3n2Cc2cc(Br)ccc2F)c(Cl)c1)C(=O)O` (racemic) [Example T258, 4-(4-(9-(5-bromo-2-fluorobenzyl)-6-(1-methylcyclopropoxy)-9H-purin-8-yl)-3-chlorophenoxy)-2-methylbutanoic acid], the IC50 was 0.0794 µM in the experiment on DLD-1 BRCA2−/− cells (DLD-1, DLD-1 BRCA2-/- proliferation, column head only partly shown, read-out: POLQ PD Prolif Lumin (converted)) and greater than 10 µM in the experiment on DLD-1 cells (DLD-1, DLD-1 BRCA2 wt control proliferation, column head only partly shown, read-out: POLQ PD Prolif Lumin (converted)).

As to `Cc1cc(OCCCN2CCOCC2)ncc1-c1nc2c(OC3(C)CC3)ncnc2n1Cc1ccccc1` [Example G7, 4-(3-((5-(9-benzyl-6-(1-methylcyclopropoxy)-9H-purin-8-yl)-4-methylpyridin-2-yl)oxy)propyl)morpholine], the IC50 with DLD-1 BRCA2−/− cells (setting [5]) is 0.398 µM; in the experiment with DLD-1 cells (setting [6]), greater than 10 µM.

Consider `CC(=O)N1CCN(CCCOc2cc(C)c(-c3nc4c(OC5(C)CC5)ncnc4n3Cc3ccccc3)cn2)CC1` [Example G3, 1-(4-(3-((5-(9-benzyl-6-(1-methylcyclopropoxy)-9H-purin-8-yl)-4-methylpyridin-2-yl)oxy)propyl)piperazin-1-yl)ethan-1-one], for which the IC50 is 1 µM in the experiment with DLD-1 BRCA2−/− cells (setting [5]) and 6.31 µM with DLD-1 cells (setting [6]).

Turning to `Cc1ccnc(Cn2c(-c3ccc(OCCCN(C)C)cc3Cl)nc3c(OC4(C)CC4)ncnc32)c1` [Example T385, 3-(3-chloro-4-(6-(1-methylcyclopropoxy)-9-((4-methylpyridin-2-yl)methyl)-9H-purin-8-yl)phenoxy)-N,N-dimethylpropan-1-amine], the IC50 was 0.0794 µM in the experiment with DLD-1 BRCA2−/− cells (setting [3]) and greater than 10 µM in the experiment with DLD-1 cells (setting [4]).

`Cc1c(-c2nc3c(OC4(C)CC4)ncnc3n2Cc2ccccc2)ccnc1OCCN1CCNCC1` [Example G14, 9-benzyl-8-(3-methyl-2-(2-(piperazin-1-yl)ethoxy)pyridin-4-yl)-6-(1-methylcyclopropoxy)-9H-purine]: the IC50 in the experiment with DLD-1 BRCA2−/− cells (setting [5]) is 0.794 µM; with DLD-1 cells (setting [6]), 7.94 µM.

On to `C[C@@H](Cn1c(-c2ccc(OCCN3CCNCC3)cc2Cl)nc2c(OC3(C)CC3)ncnc21)c1ccccc1` [Example J10, (R)-8-(2-chloro-4-(2-(piperazin-1-yl)ethoxy)phenyl)-6-(1-methylcyclopropoxy)-9-(2-phenylpropyl)-9H-purine], for which the IC50 was 0.631 µM in the experiment with DLD-1 BRCA2−/− cells (setting [5]) and 3.98 µM in the experiment on DLD-1 cells (setting [6]).

Take `CN1CCC(Oc2cccc(-c3nc4c(OC5(C)CC5)ncnc4n3Cc3ccccc3)c2Cl)CC1` [Example D9, 9-benzyl-8-(2-chloro-3-((1-methylpiperidin-4-yl)oxy)phenyl)-6-(1-methylcyclopropoxy)-9H-purine]: the values for the IC50 in the experiment on DLD-1 BRCA2−/− cells (setting [5]) and in the experiment on DLD-1 cells (setting [6]) were 0.158 µM and 2 µM, respectively.

With `CNC(=O)COc1ccc(-c2nc3c(OC4(C)CC4)ncnc3n2Cc2ccccc2)c(Cl)c1` [Example D21, 2-(4-(9-benzyl-6-(1-methylcyclopropoxy)-9H-purin-8-yl)-3-chlorophenoxy)-N-methylacetamide], the IC50 was 0.126 µM in the experiment on DLD-1 BRCA2−/− cells (setting [5]) and greater than 10 µM in the experiment on DLD-1 cells (setting [6]).

For `Cc1ccnc(Cn2c(-c3ccc(C(=O)N(C)C)cc3Cl)nc3c(OC4(C)CC4)ncnc32)c1` [Example T112, 3-chloro-N,N-dimethyl-4-(6-(1-methylcyclopropoxy)-9-((4-methylpyridin-2-yl)methyl)-9H-purin-8-yl)benzamide], the IC50 in the experiment on DLD-1 BRCA2−/− cells (setting [1]) was 1.58 µM; in the experiment on DLD-1 cells (setting [2]) it was greater than 10 µM.

Take `Cc1cccc(C)c1Cn1c(-c2ccc(OCCC(C)C(=O)O)cc2Cl)nc2c(OC3(C)CC3)ncnc21` (racemic) [Example T571, 4-(3-chloro-4-(9-(2,6-dimethylbenzyl)-6-(1-methylcyclopropoxy)-9H-purin-8-yl)phenoxy)-2-methylbutanoic acid]: the results for the IC50 in the experiment on DLD-1 BRCA2−/− cells (setting [1]) and in the experiment with DLD-1 cells (setting [2]) were 1.26 µM and greater than 10 µM, respectively.

Take `Cc1ccnc(Cn2c(-c3ccc(C(=O)N4CC5(CNC5)C4)cc3Cl)nc3c(OC4(C)CC4)ncnc32)c1` [Example T428, (3-chloro-4-(6-(1-methylcyclopropoxy)-9-((4-methylpyridin-2-yl)methyl)-9H-purin-8-yl)phenyl)(2,6-diazaspiro[3.3]heptan-2-yl)methanone]: the IC50 in the experiment with DLD-1 BRCA2−/− cells (setting [7]) and in the experiment on DLD-1 cells (setting [8]) was greater than 10 µM throughout.

As to `CC1(Oc2ncnc3c2nc(-c2ccc(CN)cc2Cl)n3Cc2ccccc2)CC1` [Example N7, (4-(9-benzyl-6-(1-methylcyclopropoxy)-9H-purin-8-yl)-3-chlorophenyl)methanamine], the IC50 is 0.631 µM with DLD-1 BRCA2−/− cells (setting [5]) and 6.31 µM in the experiment on DLD-1 cells (setting [6]).

For the molecule `Cc1ccnc(Cn2c(-c3ccc(CN4CC5(CCN5)C4)cc3Cl)nc3c(OC4(C)CC4)ncnc32)c1` [Example T489, 8-(4-((1,6-diazaspiro[3.3]heptan-6-yl)methyl)-2-chlorophenyl)-6-(1-methylcyclopropoxy)-9-((4-methylpyridin-2-yl)methyl)-9H-purine], the results for the IC50 with DLD-1 BRCA2−/− cells (setting [1]) and in the experiment with DLD-1 cells (setting [2]) were 0.794 µM and 5.01 µM, respectively.

Regarding `CC1(Oc2ncnc3c2nc(-c2ccc(OCCN4CCNCC4)cc2Cl)n3Cc2cc(C#N)ccn2)CC1` [Example L4, 2-((8-(2-chloro-4-(2-(piperazin-1-yl)ethoxy)phenyl)-6-(1-methylcyclopropoxy)-9H-purin-9-yl)methyl)isonicotinonitrile], the results for the IC50 in the experiment with DLD-1 BRCA2−/− cells (setting [5]) and with DLD-1 cells (setting [6]) were 1 µM and greater than 10 µM, respectively.

Turning to `CC(CCOc1ccc(-c2nc3c(OC4(C)CC4)ncnc3n2Cc2cc(Cl)ccc2C#N)c(Cl)c1)C(=O)O` (racemic) [Example U9, 4-(3-chloro-4-(9-(5-chloro-2-cyanobenzyl)-6-(1-methylcyclopropoxy)-9H-purin-8-yl)phenoxy)-2-methylbutanoic acid], the IC50 was 0.0794 µM in the experiment on DLD-1 BRCA2−/− cells (DLD-1, DLD-1 BRCA2 −/−, mean, read-out: POLQ PD Prolif Lumin BRCA2 −/− mean pIC50 (converted)) and greater than 10 µM with DLD-1 cells (DLD-1, DLD1 BRCA2 wt, mean, read-out: POLQ PD Prolif Lumin DLD1 mean pIC50 (converted)).

As to `CC(CCOc1ccc(-c2nc3c(OC4(C)CC4)ncnc3n2Cc2cc(C(F)(F)F)ccc2F)c(Cl)c1)C(=O)O` (racemic) [Example T395, 4-(3-chloro-4-(9-(2-fluoro-5-(trifluoromethyl)benzyl)-6-(1-methylcyclopropoxy)-9H-purin-8-yl)phenoxy)-2-methylbutanoic acid], the results for the IC50 in the experiment with DLD-1 BRCA2−/− cells (setting [7]) and in the experiment on DLD-1 cells (setting [8]) were 0.1 µM and greater than 10 µM, respectively.

The values above are taken from patent US20250195530A1, “POLQ INHIBITORS” (ASTRAZENECA AB, priority 2022, published 2025).
